Experimental data published in patent publication US20180353460A1, “METHODS OF TREATING UROLOGICAL DISORDERS USING SARMs” (priority 2014, published 2018).

System: prostate, seminal vesicles and levator ani muscle
Assay: Androgenic and anabolic activity in intact male rats, daily oral gavage
Type: in vivo, rat
Description: Male Sprague-Dawley rats weighing approximately 200 g were purchased from Harlan Bioproducts for Science (Indianapolis, Ind.). The animals were maintained on a 12 h light/dark cycle with food (7012C LM-485 Mouse/Rat Sterilizable Diet, Harlan Teklad, Madison, Wis.) and water available ad libitum. The anabolic and androgenic activity of compound of Formula VIII in intact animals was tested, as well as a dose response evaluation in acutely orchidectomized (ORX) animals. Regenerative effects of the compound of Formula VIII in chronically (9 days) ORX rats was similarly evaluated.
The test article for this study was weighed and dissolved in 10% DMSO (Fisher) diluted with PEG 300 (Acros Organics, NJ) for preparation of the appropriate dosage concentrations. The animals were housed in groups of 2 to 3 animals per cage. Animals were randomly assigned to one of seven groups consisting of 4 to 5 animals per group. Control groups (intact and ORX) were administered vehicle daily. Compound of Formula VIII was administered via oral gavage at doses of 0.01, 0.03, 0.1, 0.3, 0.75, and 1 mg/day to both intact and ORX groups. Where appropriate, animals were castrated on day one of the study. Treatment with compound of Formula VIII began nine days post ORX and was administered daily via oral gavage for fourteen days.
The animals were sacrificed under anesthesia (ketamine/xyalzine, 87:13 mg/kg) and body weights were recorded. In addition, ventral prostate, seminal vesicles, and levator ani muscle were removed, individually weighed, normalized to body weight, and expressed as a percentage of intact control. Student's T-test was used to compare individual dose groups to the intact control group. Significance was defined a priori as a P-value <0.05. Ventral prostate and seminal vesicle weights were evaluated as a measure of androgenic activity, whereas levator ani muscle weight was evaluated as a measure of anabolic activity. Blood was collected from the abdominal aorta, centrifuged, and sera were frozen at −80° C. prior to determination of serum hormone levels. Serum luteinizing hormone (LH) and follicle stimulating hormone (FSH) concentrations were determined.
Male Sprague-Dawley rats weighing approximately 200 g were purchased from Harlan Bioproducts for Science (Indianapolis, Ind.). The animals were maintained on a 12 h light/dark cycle with food (7012C LM-485 Mouse/Rat Sterilizable Diet, Harlan Teklad, Madison, Wis.) and water available ad libitum. Anabolic and androgenic activity of compound of Formula IX in intact animals was evaluated, and the dose response in acutely orchidectomized (ORX) animals was evaluated as well. Regenerative effects of compound of Formula IX in chronically (9 days) ORX rats were also assessed.
The compound was weighed and dissolved in 10% DMSO (Fisher) diluted with PEG 300 (Acros Organics, NJ) for preparation of the appropriate dosage concentrations. The animals were housed in groups of 2 to 3 animals per cage. Intact and ORX animals were randomly assigned to one of seven groups consisting of 4 to 5 animals per group. Control groups (intact and ORX) were administered vehicle daily. Compound of Formula IX was administered via oral gavage at doses of 0.01, 0.03, 0.1, 0.3, 0.75, and 1 mg/day to both intact and ORX groups.
Castrated animals (on day one of the study) were randomly assigned to dose groups (4-5 animals/group) of 0.01, 0.03, 0.1, 0.3, 0.75, and 1 mg/day, for dose-response evaluation. Dosing began nine days post ORX and was administered daily via oral gavage for fourteen days. The animals were sacrificed under anesthesia (ketamine/xyalzine, 87:13 mg/kg) after a 14-day dosing regimen, and body weights were recorded. In addition, ventral prostate, seminal vesicles, and levator ani muscle were removed, individually weighed, normalized to body weight, and expressed as a percentage of intact control. Student's T-test was used to compare individual dose groups to the intact control group. […]

| SMILES | levator ani muscle weight (0.01 mg/day) | prostate weight (0.01 mg/day) | seminal vesicle weight (0.01 mg/day) | levator ani muscle weight (0.03 mg/day) | prostate weight (0.03 mg/day) | seminal vesicle weight (0.03 mg/day) | levator ani muscle weight (0.1 mg/day) | prostate weight (0.1 mg/day) | seminal vesicle weight (0.1 mg/day) | levator ani muscle weight (0.3 mg/day) | prostate weight (0.3 mg/day) | seminal vesicle weight (0.3 mg/day) | levator ani muscle weight (0.75 mg/day) | prostate weight (0.75 mg/day) | seminal vesicle weight (0.75 mg/day) | levator ani muscle weight (1 mg/day) | prostate weight (1 mg/day) | seminal vesicle weight (1 mg/day) |
| --- | --- | --- | --- | --- | --- | --- | --- | --- | --- | --- | --- | --- | --- | --- | --- | --- | --- | --- |
| C[C@](O)(COc1ccc(C#N)c(F)c1)C(=O)Nc1ccc(C#N)c(C(F)(F)F)c1 [XIII, (S)—N-(4-cyano-3-(trifluoromethyl)phenyl)-3-(4-cyano-3-fluorophenoxy)-2-hydroxy-2-methylpropanamide] | 116%±7% | 98%±21% | 115%±12% | 134%±8% | 99%±8% | 109%±17% | 134%±21% | 85%±18% | 106%±13% | 134%±11% | 98%±22% | 121%±11% | 142%±10% | 126%±17% | 157%±5% | 147%±10% | 126%±17% | 136%±3% |
| C[C@](O)(COc1ccc(C#N)cc1)C(=O)Nc1ccc(C#N)c(C(F)(F)F)c1 [Compound IX, (S)—N-(4-Cyano-3-(trifluoromethyl)phenyl)-3-(4-cyanophenoxy)-2-hydroxy-2-methylpropanamide] | 120%±12% | 111%±21% | 94%±9% | 116%±7% | 88%±15% | 77%±11% | 128%±7% | 77%±17% | 80%±9% | 134%±7% | 71%±16% | 73%±12% | 125%±9% | 71%±10% | 77%±10% | 146%±17% | 87%±13% | 88%±14% |
| C[C@](O)(COc1ccc(C#N)cc1)C(=O)Nc1ccc(C#N)c(Cl)c1 [VIII, (S)—N-(3-Chloro-4-cyanophenyl)-3-(4-cyanophenoxy)-2-hydroxy-2-methylpropanamide] | 107%±5% | 103%±10% |  | 103%±7% | 99%±10% |  | 97%±7% | 58%±10% |  | 103%±5% | 58%±15% |  | 118%±7% | 65%±20% |  | 118%±7% | 77%±23% |  |
